How the values were obtained:
[1] = Inhibition of LPS-induced M1 macrophage polarization in C57BL/6 mouse BMDM cells assessed as fold decrease in Inos gene level at 1 uM preincubated with LPS for 24 hrs followed by compound addition and measured after 24 hrs by qRT-PCR analysis (reference value: 524.05 +/- 24.75); type: functional
[2] = biological target: RAC-alpha serine/threonine-protein kinase (Homo sapiens, UniProt P31749); assay: Inhibition of AKT1 (unknown origin); type: binding
[3] = Induction of M2 macrophage polarization in C57BL/6 mouse BMDM cells assessed as fold increase in Ym1 gene level at 1 uM incubated for 24 hrs by qRT-PCR analysis; type: functional
[4] = Induction of M2 macrophage polarization in C57BL/6 mouse BMDM cells assessed as fold increase in Arg1 gene level at 1 uM incubated for 24 hrs by qRT-PCR analysis; type: functional
[5] = Inhibition of M1 macrophage polarization in C57BL/6 mouse BMDM cells assessed as fold decrease in Inos gene level at 1 uM incubated for 24 hrs by qRT-PCR analysis (reference value: 1); type: functional
[6] = biological target: T1, RAC-alpha serine/threonine-protein kinase (Mus musculus, UniProt P31750); assay: Inhibition of LPS-induced Akt phosphorylation at Ser473 in C57BL/6 mouse BMDM cells at 50 to 500 nM incubated for 24 hrs by Western blot analysis; type: cell-based; conditions: 0.5 µM, dose 50-500 nM
[7] = biological target: T1, RAC-alpha serine/threonine-protein kinase; assay: Inhibition of Akt phosphorylation at Ser473 in C57BL/6 mouse BMDM cells at 50 to 500 nM incubated for 24 hrs by Western blot analysis; type: cell-based; conditions: 0.5 µM, dose 50-500 nM
[8] = biological target: RAC-beta serine/threonine-protein kinase (Homo sapiens, UniProt P31751); assay: Inhibition of AKT2 (unknown origin); type: binding
Sequence of RAC-beta serine/threonine-protein kinase (P31751 whole entry): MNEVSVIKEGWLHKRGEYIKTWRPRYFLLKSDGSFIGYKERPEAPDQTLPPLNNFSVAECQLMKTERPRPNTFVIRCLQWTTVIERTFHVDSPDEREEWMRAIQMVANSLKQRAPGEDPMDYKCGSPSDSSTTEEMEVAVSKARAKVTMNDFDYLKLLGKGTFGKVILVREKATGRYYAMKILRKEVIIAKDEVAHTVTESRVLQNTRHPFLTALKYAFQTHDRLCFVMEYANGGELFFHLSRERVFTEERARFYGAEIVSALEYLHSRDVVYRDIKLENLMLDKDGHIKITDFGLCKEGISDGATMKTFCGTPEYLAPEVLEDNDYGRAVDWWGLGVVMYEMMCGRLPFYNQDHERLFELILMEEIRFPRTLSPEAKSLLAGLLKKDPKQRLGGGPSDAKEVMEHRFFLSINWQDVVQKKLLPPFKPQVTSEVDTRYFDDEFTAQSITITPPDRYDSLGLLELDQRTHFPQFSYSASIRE

Sequence of RAC-alpha serine/threonine-protein kinase (Homo sapiens, UniProt P31749) (P31749 whole entry): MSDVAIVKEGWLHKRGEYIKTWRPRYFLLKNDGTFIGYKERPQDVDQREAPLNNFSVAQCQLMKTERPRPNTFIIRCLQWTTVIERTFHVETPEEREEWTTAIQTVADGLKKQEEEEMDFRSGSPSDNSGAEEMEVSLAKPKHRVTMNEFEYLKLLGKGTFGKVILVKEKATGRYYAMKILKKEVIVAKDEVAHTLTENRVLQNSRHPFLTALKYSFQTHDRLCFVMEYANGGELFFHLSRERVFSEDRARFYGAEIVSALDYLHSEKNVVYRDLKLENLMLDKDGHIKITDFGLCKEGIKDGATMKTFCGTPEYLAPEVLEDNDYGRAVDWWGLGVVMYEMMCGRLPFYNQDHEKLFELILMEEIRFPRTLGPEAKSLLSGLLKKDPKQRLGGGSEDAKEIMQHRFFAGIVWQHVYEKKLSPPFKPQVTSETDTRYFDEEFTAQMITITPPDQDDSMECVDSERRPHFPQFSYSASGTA
T1 sequence (P31750 whole entry): as the sequence (P31749 whole entry) above, with S2N, A50S, T100A, K112R, E117T, K389T, G410N, H415D counted along it

Structure (SMILES)	fold change (FC) [1]	IC50 [2] [nM]	fold change (FC) [3]	fold change (FC) [4]	fold change (FC) [5]	inhibition (INH) [6]	inhibition (INH) [7]	IC50 [8] [nM]
Cc1cc(C(=O)N[C@@H]2CNCC[C@H]2c2ccc(F)c(F)c2)ccc1-c1ccnn1C.Cl	313.7	102	14.49	8.13	0.82			
Cl.Cn1ncc(Cl)c1-c1ccc(C(=O)N[C@@H]2CNCC[C@H]2c2ccc(F)c(F)c2)cc1C1CC1		143	3.51	2.62				
Cc1cc(C(=O)N[C@@H]2CNCC[C@H]2c2ccc(F)c(F)c2)ccc1-c1c(Cl)cnn1C.Cl		299	12.2	1.55		Not Active	Not Active	
CC(C)c1cc(C(=O)N[C@@H]2CNCC[C@H]2c2ccc(F)c(F)c2)ccc1-c1c(Cl)cnn1C.Cl		69.3	5.03	2.77				
CCCc1cc(C(=O)N[C@@H]2CNCC[C@H]2c2ccc(F)c(F)c2)ccc1-c1c(Cl)cnn1C.Cl		245	3.47	1.92				
CC(C)c1cc(C(=O)N[C@@H]2CNCC[C@H]2c2ccc(F)c(F)c2)ccc1-c1ccnn1C.Cl		555	2.06	2.06				> 1000
Cl.O=C(N[C@@H]1CNCC[C@H]1c1ccc(F)c(F)c1)c1c(F)cc(-c2ccn[nH]2)cc1Cl		69.2	1.94	1.39				
Cn1ncc(Cl)c1-c1ccc(C(=O)N[C@@H]2CNCC[C@H]2c2ccc(F)c(F)c2)cc1		5	8.63	2.41				
CCCc1cc(C(=O)N[C@@H]2CNCC[C@H]2c2ccc(F)c(F)c2)ccc1-c1c(Br)cnn1C.Cl		> 1000	3.86	1.42				> 1000
CCCc1cc(C(=O)N[C@@H]2CNCC[C@H]2c2ccc(F)c(F)c2)ccc1-c1ccnn1C.Cl		92	3.84	1.43				
Cl.O=C(N[C@@H]1CNCC[C@H]1c1ccc(F)c(F)c1)c1c(F)cc(-c2ccn[nH]2)cc1F		28	8.14	1.72				> 1000
Cl.Cn1nccc1-c1ccc(C(=O)N[C@@H]2CNCC[C@H]2c2ccc(F)c(F)c2)cc1C1CC1		157	1.38	3.31				> 1000
Cc1cc(C(=O)N[C@@H]2CNCC[C@H]2c2ccc(F)c(F)c2)ccc1-c1c(Br)cnn1C.Cl		341	4.87	2.62				> 1000
CC(C)c1cc(C(=O)N[C@@H]2CNCC[C@H]2c2ccc(F)c(F)c2)ccc1-c1c(Br)cnn1C.Cl		> 1000	4.49	2.6				> 1000
Cl.O=C(N[C@@H]1CNCC[C@H]1c1ccc(F)c(F)c1)c1c(F)cc(-c2[nH]ncc2Br)cc1F		> 1000	19.79	2.38				
Cn1ncc(Br)c1-c1ccc2c(c1)CN([C@@H]1CNCC[C@H]1c1ccc(F)c(F)c1)C2=O		1.6	7.52	1.93				2.7
Cn1nccc1-c1ccc2c(c1)CN([C@@H]1CNCC[C@H]1c1ccc(F)c(F)c1)C2=O		4.3	3.59	2.24				

— ChEMBL document CHEMBL5352415, “Discovery of new macrophage M2 polarization modulators as multiple sclerosis treatment agents that enable the inflammation microenvironment remodeling” (Eur J Med Chem, 2022)
